From patent publication US11130769B2 (Prelude Therapeutics Incorporated, priority 2018, dated 2021)

Columns and labels:
[1] = target: MCL-1 (Homo sapiens (Human), UniProt Q07820); assay: Cell free Mcl-1:Bim affinity assay (fluorescence polarization competition); type: binding; conditions: 15 nM MCL-1, 5 nM FITC-Bim, 1 hour at room temperature; class symbols; read-out: BIM_Ki
In short: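 Fluorescence polarization competition: 10-point 3-fold compound dilutions displaced 5 nM FITC-Bim from 15 nM MCL-1 over 1 h at room temperature. Ki was derived from the fitted IC50 using the Nikolovska-Coleska equation, with percent inhibition normalized to DMSO and positive controls.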

[2] = system: H929 cells; assay: Cell viability assay (H929 10 FBS); type: cell-based; conditions: Homo sapiens, NCI-H929, 24 hours, read-out: H929_10FBS IC50
In short: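 ATP-based luminescence (CellTiter-Glo or ATPlite 1 Step, 30-60 min at RT) gauged viability of H929 myeloma cells after 24 h compound treatment at 37 °C. Cells plated at 4000 per well in 10% FBS RPMI 1640 supplemented with pyruvate, HEPES and glucose.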

MCL-1, sequence (Q07820 whole entry): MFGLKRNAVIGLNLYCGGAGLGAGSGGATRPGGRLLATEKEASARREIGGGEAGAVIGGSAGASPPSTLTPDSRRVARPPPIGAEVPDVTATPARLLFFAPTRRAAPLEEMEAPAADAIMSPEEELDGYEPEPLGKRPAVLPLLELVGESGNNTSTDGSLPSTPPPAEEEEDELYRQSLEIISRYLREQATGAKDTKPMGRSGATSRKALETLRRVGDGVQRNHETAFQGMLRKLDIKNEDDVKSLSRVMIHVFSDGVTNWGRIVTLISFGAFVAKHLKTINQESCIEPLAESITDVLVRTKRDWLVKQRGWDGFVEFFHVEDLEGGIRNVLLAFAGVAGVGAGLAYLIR

Row | SMILES | Ki [1] | IC50 [2]
1 | CN(C)C(=O)O[C@@H]1/C=C/COC(C)(C)C(=O)NS(=O)(=O)c2ccc3c(c2)N(C[C@@H]2CC[C@H]21)C[C@@]1(CCCc2cc(Cl)ccc21)CO3 [Example 37, [(3R,6R,7R,8E,22S)-6′-Chloro-12,12-dimethyl-13,15,15-trioxo-spiro[11,20-dioxa-15-thia-1,14-diazatetracyclo[14.7.2.03,6.019,24]pentacosa-8,16,18,24-tetraene-22,1′-tetralin]-7-yl] N,N-dimethylcarbamate] | < 1 nM | < 500 nM
2 | CO[C@@H]1/C=C/CN[C@@H](C2CC2)C(=O)NS(=O)(=O)c2ccc3c(c2)N(C[C@@H]2CC[C@H]21)C[C@@]1(CCCc2cc(Cl)ccc21)CO3 [Example 126, (3R,6R,7R,8E,12S,22S)-6′-Chloro-7-methoxy-12-cyclopropyl-15,15-dioxo-spiro[20-oxa-15-thia-1,11,14-triazatetracyclo[14.7.2.03,6.019,24]pentacosa-8,16,18,24-tetraene-22,1′-tetralin]-13-one] | 1 to 100 nM | > 1000 nM
3 | CN(C)C(=O)O[C@H]1/C=C/CNC(C)(C)C(=O)NS(=O)(=O)c2ccc3c(c2)N(C[C@@H]2CC[C@H]21)C[C@@]1(CCCc2cc(Cl)ccc21)CO3 [Example 209, [(3R,6R,7S,8E,22S)-6′-Chloro-12,12-dimethyl-13,15,15-trioxo-spiro[20-oxa-15-thia-1,11,14-triazatetracyclo[14.7.2.03,6.019,24]pentacosa-8,16,18,24-tetraene-22,1′-tetralin]-7-yl] N,N-dimethylcarbamate] | < 1 nM | < 500 nM
4 | CCO[C@@H]1CCN(C(=O)O[C@H]2/C=C/COC3(CCC3)C(=O)NS(=O)(=O)c3ccc4c(c3)N(C[C@@H]3CC[C@H]32)C[C@@]2(CCCc3cc(Cl)ccc32)CO4)C1 [Example 228, [(3R,6R,7S,8E,22S)-6′-Chloro-12,12-(1,3-propylene)-13,15,15-trioxo-spiro[11,20-dioxa-15-thia-1,14-diazatetracyclo[14.7.2.03,6.019,24]pentacosa-8,16,18,24-tetraene-22,1′-tetralin]-7-yl] (3R)-3-ethoxypyrrolidine-1-carboxylate] | < 1 nM | < 500 nM
5 | CC1(C)OC/C=C/[C@H](OC(=O)N[C@@H]2CCOC2)[C@@H]2CC[C@H]2CN2C[C@@]3(CCOc4cc(Cl)ccc43)COc3ccc(cc32)S(=O)(=O)NC1=O [Example 302, [(3R,6R,7S,8E,22S)-7′-Chloro-12,12-dimethyl-13,15,15-trioxo-spiro[11,20-dioxa-15-dioxa-15-thia-1,14-diazatetracyclo[14.7.2.03,6.019,24]pentacosa-8,16,18,24-tetraene-22,4′-chromane]-7-yl] N-[(3R)-tetrahydrofuran-3-yl]carbamate] | < 1 nM | < 500 nM
6 | CN1CCN(C(=O)O[C@H]2/C=C/COC(C)(C)C(=O)NS(=O)(=O)c3ccc4c(c3)N(C[C@@H]3CC[C@H]32)C[C@@]2(CCCc3cc(Cl)ccc32)CO4)CC1 [Example 189, [(3R,6R,7S,8E,22S)-6′-Chloro-12,12-dimethyl-13,15,15-trioxo-spiro[11,20-dioxa-15-thia-1,14-diazatetracyclo[14.7.2.03,6.019,24]pentacosa-8,16,18,24-tetraene-22,1′-tetralin]-7-yl] 4-methylpiperazine-1-carboxylate] | < 1 nM | < 500 nM
7 | CN(C)C(=O)OC1CCCOC(C)(C)C(=O)NS(=O)(=O)c2ccc3c(c2)N(C[C@@H]2CC[C@@H]12)C[C@@]1(CCCc2cc(Cl)ccc21)CO3 (stereo partly drawn) [Example 286, [(3R,6R,22S)-6′-Chloro-12,12-dimethyl-13,15,15-trioxo-spiro[11,20-dioxa-15-thia-1,14-diazatetracyclo[14.7.2.03,6.019,24]pentacosa-16,18,24-triene-22,1′-tetralin]-7-yl] N,N-dimethylcarbamate] | 1 to 100 nM | > 1000 nM
8 | COC1CCN(C(=O)O[C@H]2/C=C/CN(C)C3(CCC3)C(=O)NS(=O)(=O)c3ccc4c(c3)N(C[C@@H]3CC[C@H]32)C[C@@]2(CCCc3cc(Cl)ccc32)CO4)CC1 [Example 245, [(3R,6R,7S,8E,22S)-6′-Chloro-11-methyl-12,12-(1,3-propylene)-13,15,15-trioxo-spiro[20-oxa-15-thia-1,11,14-triazatetracyclo[14.7.2.03,6.019,24]pentacosa-8,16,18,24-tetraene-22,1′-tetralin]-7-yl] 4-methoxypiperidine-1-carboxylate] | < 1 nM | < 500 nM
9 | COCCNC(=O)O[C@H]1/C=C/COC(C)(C)C(=O)NS(=O)(=O)c2ccc3c(c2)N(C[C@@H]2CC[C@H]21)C[C@@]1(CCCc2cc(Cl)ccc21)CO3 [Example 191, [(3R,6R,7S,8E,22S)-6′-Chloro-12,12-dimethyl-13,15,15-trioxo-spiro[11,20-dioxa-15-thia-1,14-diazatetracyclo[14.7.2.03,6.019,24]pentacosa-8,16,18,24-tetraene-22,1′-tetralin]-7-yl] N-(2-methoxyethyl)carbamate] | < 1 nM | < 500 nM
10 | CN1C/C=C/[C@H](OC(=O)N2CCC2)[C@@H]2CC[C@H]2CN2C[C@@]3(CCCc4cc(Cl)ccc43)COc3ccc(cc32)S(=O)(=O)NC(=O)C1(C)C [Example 216, [(3R,6R,7S,8E,22S)-6′-Chloro-11,12,12-trimethyl-13,15,15-trioxo-spiro[20-oxa-15-thia-1,11,14-triazatetracyclo[14.7.2.03,6.019,24]pentacosa-8,16,18,24-tetraene-22,1′-tetralin]-7-yl]azetidine-1-carboxylate] | < 1 nM | < 500 nM
11 | CN(C)C(=O)O[C@H]1/C=C/COC(C)(C)C(=O)NS(=O)(=O)c2ccc3c(c2)N(C[C@@H]2CC[C@H]21)C[C@@]1(CCOc2cc(Cl)ccc21)CO3 [Example 247, [(3R,6R,7S,8E,22S)-7′-Chloro-12,12-dimethyl-135,5-trioxo-spiro[11,20-dioxa-15-thia-1,14-diazatetracyclo[14.7.2.03,6.019,24]pentacosa-8,16,18,24-tetraene-22,4′-chromane]-7-yl] N,N-dimethylcarbamate] | < 1 nM | < 500 nM
12 | CC(C)NC(=O)O[C@H]1/C=C/CN(C)C(C)(C)C(=O)NS(=O)(=O)c2ccc3c(c2)N(C[C@@H]2CC[C@H]21)C[C@@]1(CCCc2cc(Cl)ccc21)CO3 [Example 207, [(3R,6R,7S,8E,22S)-6′-Chloro-11,12,12-trimethyl-13,15,15-trioxo-spiro[20-oxa-15-thia-1,11,14-triazatetracyclo[14.7.2.03,6.019,24]pentacosa-8,16,18,24-tetraene-22,1′-tetralin]-7-yl] N-isopropylcarbamate] | < 1 nM | < 500 nM
13 | CN1CCN(CCO[C@H]2/C=C/COC(C)(C)C(=O)NS(=O)(=O)c3ccc4c(c3)N(C[C@@H]3CC[C@H]32)C[C@@]2(CCCc3cc(Cl)ccc32)CO4)CC1 [Example 259, (3R,6R,7S,8E,22S)-6′-Chloro-12,12-dimethyl-7-[2-(4-methylpiperazin-1-yl)ethoxy]-15,15-dioxo-spiro[11,20-dioxa-15-thia-1,14-diazatetracyclo[14.7.2.03,6.019,24]pentacosa-8,16,18,24-tetraene-22,1′-tetralin]-13-one] | < 1 nM | < 500 nM
14 | CO[C@@H]1/C=C/CCN(C)C(=O)NS(=O)(=O)c2ccc3c(c2)N(C[C@@H]2CC[C@H]21)C[C@@]1(CCCc2cc(Cl)ccc21)CO3 [Example 107, (3R,6R,7R,8E,22S)-6′-Chloro-7-methoxy-12-methyl-15,15-dioxo-spiro[20-oxa-15-thia-1,12,14-triazatetracyclo[14.7.2.03,6.019,24]pentacosa-8,16,18,24-tetraene-22,1′-tetralin]-13-one] | 1 to 100 nM | < 1000 nM
15 | CO[C@@H]1CCN(C(=O)O[C@H]2/C=C/COC(C)(C)C(=O)NS(=O)(=O)c3ccc4c(c3)N(C[C@@H]3CC[C@H]32)C[C@@]2(CCCc3cc(Cl)ccc32)CO4)C1 [Example 58, [(3R,6R,7S,8E,22S)-6′-Chloro-12,12-dimethyl-13,15,15-trioxo-spiro[11,20-dioxa-15-thia-1,14-diazatetracyclo[14.7.2.03,6.019,24]pentacosa-8,16,18,24-tetraene-22,1′-tetralin]-7-yl] (3R)-3-methoxypyrrolidine-1-carboxylate] | < 1 nM | < 500 nM
16 | CN(C)C(=O)O[C@H]1/C=C/CN(C)C2(CCC2)C(=O)NS(=O)(=O)c2ccc3c(c2)N(C[C@@H]2CC[C@H]21)C[C@@]1(CCCc2cc(Cl)ccc21)CO3 [Example 48, [(3R,6R,7R,8E,22S)-6′-Chloro-11-methyl-12,12-(1,3-propylene)-13,15,15-trioxo-spiro[20-oxa-15-thia-1,11,14-triazatetracyclo[14.7.2.03,6.019,24]pentacosa-8,16,18,24-tetraene-22,1′-tetralin]-7-yl] N,N-dimethylcarbamate] | < 1 nM | < 500 nM
17 | CO[C@@H]1/C=C/C[C@H](C)[C@@H](C)C(=O)NS(=O)(=O)c2ccc3c(c2)N(C[C@@H]2CC[C@H]21)C[C@@]1(CCCc2cc(Cl)ccc21)CO3 [Example 78, (3R,6R,7R,8E,1S,12R,22S)-6′-Chloro-7-methoxy-11,12-dimethyl-15,15-dioxo-spiro[20-oxa-15-thia-1,14-diazatetracyclo[14.7.2.03,6.019,24]pentacosa-8,16,18,24-tetraene-22,1′-tetralin]-13-one] | 1 to 100 nM | > 1000 nM
